# Reference: patent US20230399312A1, “SUBSTITUTED PYRIMIDINES AND METHODS OF USE” (THERAVANCE BIOPHARMA R&D IP, LLC, priority 2020, published 2023)
# What was measured:
# [1] = target: T1, recombinant human ALK5 (TGF-βR1) protein (Homo sapiens, UniProt P36897); test: Biochemical ALK5 (TGF-βR1) assay to measure pKi (LANCE Ultra ULight kinase assay); details: apparent pKi, converted from pIC50 by Cheng-Prusoff
# T1 construct: purchased Life Technologies PR9075A
# T1 sequence (P36897 34-503): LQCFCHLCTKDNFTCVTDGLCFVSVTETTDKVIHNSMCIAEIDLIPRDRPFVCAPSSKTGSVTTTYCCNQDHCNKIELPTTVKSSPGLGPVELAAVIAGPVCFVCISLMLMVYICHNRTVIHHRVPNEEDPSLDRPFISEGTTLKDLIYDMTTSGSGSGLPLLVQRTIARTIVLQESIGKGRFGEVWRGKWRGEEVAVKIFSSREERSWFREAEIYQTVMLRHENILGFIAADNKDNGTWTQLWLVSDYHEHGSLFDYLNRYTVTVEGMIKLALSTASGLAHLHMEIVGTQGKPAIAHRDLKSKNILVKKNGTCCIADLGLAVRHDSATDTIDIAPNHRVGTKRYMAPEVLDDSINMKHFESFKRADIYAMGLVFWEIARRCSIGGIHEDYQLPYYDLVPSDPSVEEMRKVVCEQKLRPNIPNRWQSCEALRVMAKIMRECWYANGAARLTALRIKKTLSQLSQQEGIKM
# Summary of the method: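 Enzyme was preincubated with compound for 60 min at room temperature, then ATP (added from a 125 μM 5× stock with 2 mM DTT) started a 60 min reaction at 37 °C. EDTA plus Eu-anti-phospho-Topo2α (Thr1342) antibody stopped it; TR-FRET pIC50 values were converted to pKi by Cheng-Prusoff.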
# [2] = tested on: TGF-β-stimulated SMAD3 phosphorylation in BEAS-2B cells; test: Cellular ALK5 potency assay, inhibition of TGF-β stimulated pSMAD3 formation in BEAS-2B cells; assay type: cell-based; details: Homo sapiens, pSMAD3, TGF-β 10 ng/mL, read-out: BEAS2B pIC50 (converted)
# Summary of the method: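 Human lung epithelial BEAS-2B cells were preincubated 1 h at 37 °C with compound in HBSS/HEPES/1% BSA, then stimulated 30 min with 10 ng/mL TGF-β. pSMAD3 in lysates was quantified by AlphaLISA relative to untreated stimulated cells; reported as pIC50.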
SMILES,Ki [1],IC50 [2]
"Cc1cccc(-c2nccc(Nc3ccnc(Nc4ccc(NCC5(CO)CNC5)cc4)n3)n2)n1 [Compound 310, [3-[[4-[[4-[[2-(6-methyl-2-pyridyl)pyrimidin-4-yl]amino]pyrimidin-2-yl]amino]anilino]methyl]azetidin-3-yl] methanol]",0.398 to 3.16 nM,25.1 to 158 nM
"Cc1cccc(-c2nccc(Nc3ccnc(Nc4ccc5c(c4)NCCC5)n3)n2)n1 [Compound 225, N4-[2-(6-methyl-2-pyridyl)pyrimidin-4-yl]-N2-(1,2,3,4-tetrahydroquinolin-7-yl)pyrimidine-2,4-diamine]",0.0398 to 0.316 nM,25.1 to 158 nM
"Cc1cccc(-c2nccc(Nc3ccnc(Nc4csc(NC(=O)C5CNC5)c4)n3)n2)n1 [Compound 211, N-[4-[[4-[[2-(6-methyl-2-pyridyl)pyrimidin-4-yl]amino]pyrimidin-2-yl]amino]-2-thienyl]azetidine-3-carboxamide]",0.0398 to 0.316 nM,25.1 to 158 nM
"Cc1cccc(-c2nccc(Nc3ccnc(Nc4ccc(C5COCCN5)cc4)n3)n2)n1 (stereo not shown) [Compound 351, N4-[2-(6-methyl-2-pyridyl)pyrimidin-4-yl]-N2-(4-morpholin-3-ylphenyl)pyrimidine-2,4-diamine]",0.0398 to 0.316 nM,≤ 20 nM
"Cc1cccc(-c2cccc(Nc3ccnc(Nc4ccc(N5CCOCC5)cc4)n3)n2)n1 [Compound 1000, N4-[6-(6-methyl-2-pyridyl)-2-pyridyl]-N2-(4-morpholinophenyl)pyrimidine-2,4-diamine]",3.98 to 31.6 nM,25.1 to 158 nM
"Cc1cccc(-c2nccc(Nc3ccnc(Nc4ccc(-c5cn[nH]c5)cc4)n3)n2)n1 [Compound 535, N4-[2-(6-methyl-2-pyridyl)pyrimidin-4-yl]-N2-[4-(1H-pyrazol-4-yl)phenyl]pyrimidine-2,4-diamine]",3.98 to 31.6 nM,≤ 20 nM
"Cc1cccc(-c2nccc(Nc3ccnc(Nc4cccc(N5CCN(C)CC5)c4)n3)n2)n1 [Compound 233, N2-[3-(4-methylpiperazin-1-yl)phenyl]-N4-[2-(6-methyl-2-pyridyl)pyrimidin-4-yl]pyrimidine-2,4-diamine]",0.0398 to 0.316 nM,25.1 to 158 nM
"Cc1cccc(-c2nccc(Nc3ccnc(Nc4ccc(Cl)c(N)c4)n3)n2)n1 [Compound 126, N2-(3-amino-4-chloro-phenyl)-N4-[2-(6-methyl-2-pyridyl)pyrimidin-4-yl]pyrimidine-2,4-diamine]",0.398 to 3.16 nM,≤ 20 nM
"Cc1cccc(-c2nccc(Nc3ccnc(Nc4ccc(CN5CCC(C(=O)OC6CCN(C)C6)CC5)cc4)n3)n2)n1 (stereo not shown) [Compound 248, (1-methylpyrrolidin-3-yl) 1-[[4-[[4-[[2-(6-methyl-2-pyridyl)pyrimidin-4-yl]amino]pyrimidin-2-yl]amino]phenyl]methyl] piperidine-4-carboxylate]",0.0398 to 0.316 nM,25.1 to 158 nM
"Cc1cccc(-c2nc(C)cc(Nc3ccnc(Nc4ccc(N5CCNCC5)cc4)n3)n2)n1 [Compound 482, N4-[6-methyl-2-(6-methyl-2-pyridyl)pyrimidin-4-yl]-N2-(4-piperazin-1-ylphenyl)pyrimidine-2,4-diamine]",0.0398 to 0.316 nM,25.1 to 158 nM
"Cc1cccc(-c2nc(Nc3ccnc(Nc4ccc(N)cc4)n3)c3cccn3n2)n1 [Compound 1015, N2-(4-aminophenyl)-N4-[2-(6-methyl-2-pyridyl)pyrrolo[2,1-f][1,2,4]triazin-4-yl]pyrimidine-2,4-diamine]",0.0398 to 0.316 nM,25.1 to 158 nM
"Cc1cccc(-c2nccc(Nc3ccnc(Nc4ccc(N5CCCC(C(=O)O)C5)cc4)n3)n2)n1 (stereo not shown) [Compound 454, 1-[4-[[4-[[2-(6-methyl-2-pyridyl)pyrimidin-4-yl]amino]pyrimidin-2-yl]amino]phenyl]piperidine-3-carboxylic acid]",0.0398 to 0.316 nM,200 to 1260 nM
"Cc1cccc(-c2nccc(Nc3ccnc(Nc4ccc(CN5CCNC[C@@H]5CO)cc4)n3)n2)n1 [Compound 132, [(2R)-1-[[4-[[4-[[2-(6-methyl-2-pyridyl)pyrimidin-4-yl]amino]pyrimidin-2-yl]amino]phenyl]methyl]piperazin-2-yl]methanol]",0.0398 to 0.316 nM,25.1 to 158 nM
"Cc1cccc(-c2nccc(Nc3ccnc(Nc4nc(CN5CCC[C@@H](C(=O)O)C5)cs4)n3)n2)n1 [Compound 339, (3R)-1-[[2-[[4-[[2-(6-methyl-2-pyridyl)pyrimidin-4-yl]amino]pyrimidin-2-yl]amino]thiazol-4-yl]methyl]piperidine-3-carboxylic acid]",0.398 to 3.16 nM,200 to 1260 nM
"Cc1cccc(-c2nccc(Nc3ccnc(Nc4ccc(N5CCCC(C(=O)OCC6CNC6)C5)cc4)n3)n2)n1 (stereo not shown) [Compound 433, azetidin-3-ylmethyl 1-[4-[[4-[[2-(6-methyl-2-pyridyl)pyrimidin-4-yl]amino]pyrimidin-2-yl]amino]phenyl]piperidine-3-carboxylate]",0.0398 to 0.316 nM,25.1 to 158 nM

# Continued, in another order:
Ki [1],SMILES,IC50 [2]
0.0398 to 0.316 nM,"Cc1cccc(-c2nccc(Nc3ccnc(Nc4ccc(-c5cnn(C6COC6)c5)cc4)n3)n2)n1 [Compound 538, N4-(2-(6-methylpyridin-2-yl)pyrimidin-4-yl)-N2-(4-(1-(oxetan-3-yl)-1H-pyrazol-4-yl)phenyl)pyrimidine-2,4-diamine]",25.1 to 158 nM
0.0398 to 0.316 nM,"Cc1cccc(-c2nccc(Nc3ccnc(Nc4ccc(CN5CCCNCC5)cc4)n3)n2)n1 [Compound 377, N2-[4-(1,4-diazepan-1-ylmethyl)phenyl]-N4-[2-(6-methyl-2-pyridyl)pyrimidin-4-yl]pyrimidine-2,4-diamine]",25.1 to 158 nM
0.0398 to 0.316 nM,"Cc1cccc(-c2nccc(Nc3ccnc(Nc4ccc(CN)cc4)n3)n2)n1 [Compound 187, N2-[4-(aminomethyl)phenyl]-N4-[2-(6-methyl-2-pyridyl)pyrimidin-4-yl]pyrimidine-2,4-diamine]",25.1 to 158 nM
0.0398 to 0.316 nM,"Cc1cccc(-c2nccc(Nc3ccnc(Nc4ccc(NS(=O)(=O)CC5CCCNC5)cc4)n3)n2)n1 (stereo not shown) [Compound 106, N-(4-((4-((2-(6-methylpyridin-2-yl)pyrimidin-4-yl)amino)pyrimidin-2-yl)amino)phenyl)-1-(piperidin-3-yl)methanesulfonamide]",25.1 to 158 nM
0.0398 to 0.316 nM,"Cc1cccc(-c2nccc(Nc3ccnc(Nc4ccc(CN5CC(C)(N)C5)cc4)n3)n2)n1 [Compound 438, N2-[4-[(3-amino-3-methyl-azetidin-1-yl)methyl]phenyl]-N4-[2-(6-methyl-2-pyridyl)pyrimidin-4-yl]pyrimidine-2,4-diamine]",25.1 to 158 nM
0.0398 to 0.316 nM,"Cc1cccc(-c2nccc(Nc3ccnc(Nc4ccc(CN5CCN[C@@H](CO)C5)cc4)n3)n2)n1 [Compound 183, [(2R)-4-[[4-[[4-[[2-(6-methyl-2-pyridyl)pyrimidin-4-yl]amino]pyrimidin-2-yl]amino]phenyl]methyl]piperazin-2-yl]methanol]",25.1 to 158 nM
0.0398 to 0.316 nM,"Cc1cccc(-c2nccc(Nc3ccnc(Nc4ccc(N5CCNCC5)cc4)n3)n2)n1 [Compound 418, N4-(2-(6-methylpyridin-2-yl)pyrimidin-4-yl)-N2-(4-(piperazin-1-yl)phenyl)pyrimidine-2,4-diamine]",25.1 to 158 nM
≤ 0.0316 nM,"Cc1cccc(-c2nccc(Nc3ccnc(Nc4ccc(N5CCN(C(C)C)CC5)cc4)n3)n2)n1 [Compound 189, N2-[4-(4-isopropylpiperazin-1-yl)phenyl]-N4-[2-(6-methyl-2-pyridyl)pyrimidin-4-yl]pyrimidine-2,4-diamine]",25.1 to 158 nM
